The values below come from patent publication US10329295B2, “Pyrrolotriazine inhibitors of IRAK4 activity” (MERCK SHARP & DOHME CORP., priority 2015, dated 2019).

Where a name gives a salt, the structure may show the parent alone.

Usually IC50 stands for the concentration at which inhibition is half-maximal. Read a high IC50 as a need for much substance.

Sequence of GST tagged IRAK4 (Q9NWZ3 whole entry): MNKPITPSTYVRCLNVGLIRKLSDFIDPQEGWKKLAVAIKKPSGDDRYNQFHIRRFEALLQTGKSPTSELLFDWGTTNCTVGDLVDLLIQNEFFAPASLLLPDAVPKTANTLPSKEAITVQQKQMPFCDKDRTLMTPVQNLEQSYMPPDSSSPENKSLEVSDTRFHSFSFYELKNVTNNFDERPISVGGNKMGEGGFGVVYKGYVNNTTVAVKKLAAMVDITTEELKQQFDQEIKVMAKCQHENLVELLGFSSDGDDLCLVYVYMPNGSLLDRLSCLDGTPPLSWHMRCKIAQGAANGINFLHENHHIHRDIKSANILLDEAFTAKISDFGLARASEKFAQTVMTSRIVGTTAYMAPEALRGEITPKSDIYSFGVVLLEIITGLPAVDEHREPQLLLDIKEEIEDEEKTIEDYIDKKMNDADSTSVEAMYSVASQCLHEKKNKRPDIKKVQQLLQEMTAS

This assay has as its target GST tagged IRAK4 (Homo sapiens (Human), UniProt Q9NWZ3). The assay can be described thus: IRAK4 Kinase Assay (IMAP fluorescence polarization). The following applies: 0.5 nM GST tagged IRAK4, 100 μM ATP, 30 minutes at 25° C. Format: biochemical. As for the experimental part: The kinase activity of IRAK4 is determined by its ability to catalyze the phosphorylation of a fluorescent polypeptide substrate. The extent of phosphorylation is measured using the IMAP technology (Molecular Devices) where the phosphorylated fluorescent substrate binds to the large M(III)-based nanoparticles which reduces the rotational speed of the substrate and thus increases its fluorescent polarization (FP).
20 μL reaction mixture contains 10 mM TriHCl, pH 7.2, 0.5 nM GST tagged IRAK4 (SignalChem), 100 nM fluorescent peptide substrate (RP7030, Molecular Devices), 100 μM ATP, 1 mM DDT, 1 mM MgCl2, and 0.01% Tween 20. The reaction is initiated by the addition of ATP. After incubation for 30 minutes at 25° C., 60 μL of Progressive IMAP Reagent (Molecular Devices) is added to stop the reaction. Change in RP7030's FP is determined by a FP reader (Analyst HT, LJL BioSystems).
(In general: Polarisation of emitted light reports the rotation of a fluorescent probe.)
`N#Cc1cscc1NC(=O)c1ccc2cnc(N3CCC[C@H](N)C3)nn12` [Example 143, 2-[(3S)-3-aminopiperidin-1-yl]-N-(4-cyanothiophen-3-yl)pyrrolo[2,1-f][1,2,4]triazine-7-carboxamide trifluoroacetate] returned an IC50 of 9 nM.

The compound `Cn1cc(NC(=O)c2ccc3cnc(N[C@@H]4CCCC[C@@H]4N)nn23)c(Cl)n1` [Example 25, 2-{[(1R,2S)-2-aminocyclohexyl]amino}-N-(3-chloro-1-methyl-1H-pyrazol-4-yl)pyrrolo[2,1-f][1,2,4]triazine-7-carboxamide trifluoroacetate] displayed an IC50 of 1 nM.

`COCCn1cc(NC(=O)c2ccc3cnc(N[C@@H]4CCCC[C@@H]4N)nn23)cn1` [Example 168, 2-{[(1R,2S)-2-aminocyclohexyl]amino}-N-[1-(2-methoxyethyl)-1H-pyrazol-4-yl]pyrrolo[2,1-f][1,2,4]triazine-7-carboxamide trifluoroacetate] displayed a 50% inhibitory concentration (IC50) of 301 nM.

Turning to `O=C(Nc1ccccc1C(F)(F)F)c1ccc2cnc(N3C[C@H]4CC[C@@H]3CN4)nn12` (single isomer, unassigned) [Example 68, 2-[(1S,4S)- or (1R,4R)-2,5-diazabicyclo[2.2.2]oct-2-yl]-N-[2-(trifluoromethyl)phenyl]-pyrrolo[2,1-f][1,2,4]triazine-7-carboxamide trifluoroacetate], it took 218 nM to reach half-maximal inhibition (IC50).

Take `Cn1cc(NC(=O)c2ccc3cnc(N[C@@H]4CCCC(F)(F)[C@@H]4N)nn23)c(C#N)n1` [Example 98, 2-{[(1R,2R)-2-amino-3,3-difluorocyclohexyl]amino}-N-(3-cyano-1-methyl-1H-pyrazol-4-yl)pyrrolo[2,1-f][1,2,4]triazine-7-carboxamide trifluoroacetate]: it took 86 nM to reach half-maximal inhibition (IC50).

The compound `N[C@@H]1[C@H](Nc2ncc3ccc(C(=O)Nc4ccsc4Br)n3n2)CCCC1(F)F` [Example 94, 2-{[(1R,2R)-2-amino-3,3-difluorocyclohexyl]amino}-N-(2-bromothiophen-3-yl)pyrrolo[2,1-f][1,2,4]triazine-7-carboxamide trifluoroacetate] showed an IC50 of 4150 nM.

Compound `N#Cc1sccc1NC(=O)c1ccc2cnc(N[C@@H]3CCCC(F)(F)[C@@H]3N)nn12` [Example 158, 2-{[(1R,2R)-2-amino-3,3-difluorocyclohexyl]amino}-N-(2-cyanothiophen-3-yl)pyrrolo[2,1-f][1,2,4]triazine-7-carboxamide formate] showed an IC50 of 1040 nM.

In the case of `Cn1cc(NC(=O)c2ccc3cnc(N4CCCNCC4)nn23)c(C#N)n1` [Example 34, N-(3-cyano-1-methyl-1H-pyrazol-4-yl)-2-(1,4-diazepan-1-yl)pyrrolo[2,1-f][1,2,4]triazine-7-carboxamide trifluoroacetate], the IC50 was 352 nM.

On to `Cn1cc(NC(=O)c2ccc3cnc(N[C@H]4CC(F)(F)CC[C@H]4N)nn23)c(C(F)(F)F)n1` (single isomer, unassigned) [Example 127, 2-{[(1S,2R)- or (1R,2S)-2-amino-5,5-difluorocyclohexyl]amino}-N-[1-methyl-3-(trifluoromethyl)-1H-pyrazol-4-yl]pyrrolo[2,1-f][1,2,4]triazine-7-carboxamide trifluoroacetate], for which the IC50 was found to be 17 nM.

Compound `O=C(Nc1ccsc1Cl)c1ccc2cnc(N3CCCNCC3)nn12` [Example 31, N-(2-chlorothiophen-3-yl)-2-(1,4-diazepan-1-yl)pyrrolo[2,1-f][1,2,4]triazine-7-carboxamide trifluoroacetate] showed an IC50 of 866 nM.

`N#Cc1cscc1NC(=O)c1ccc2cnc(N3CC4CCC3CN4)nn12` (stereo not drawn) [Example 36, N-(4-cyanothiophen-3-yl)-2-(2,5-diazabicyclo[2.2.2]oct-2-yl)pyrrolo[2,1-f][1,2,4]triazine-7-carboxamide trifluoroacetate] yielded an IC50 of 426 nM.

Take `O=C(Nc1cscc1Br)c1ccc2cnc(N3CC4CCC3CN4)nn12` (stereo not drawn) [Example 24, N-(4-bromothiophen-3-yl)-2-(2,5-diazabicyclo[2.2.2]oct-2-yl)pyrrolo[2,1-f][1,2,4]triazine-7-carboxamide trifluoroacetate]: half-maximal inhibition (IC50) required 680 nM.

Regarding `N#Cc1sccc1NC(=O)c1ccc2cnc(N[C@@H]3CCCC[C@@H]3N)nn12` [Example 21, 2-{[(1R,2S)-2-aminocyclohexyl]amino}-N-(2-cyanothiophen-3-yl)pyrrolo[2,1-f][1,2,4]triazine-7-carboxamide trifluoroacetate], the IC50 was 1 nM.

Consider `Cn1cc(NC(=O)c2ccc3cnc(N4CC5CCC(C4)N5)nn23)c(C#N)n1` [Example 110, N-(3-cyano-1-methyl-1H-pyrazol-4-yl)-2-(3,8-diazabicyclo[3.2.1]oct-3-yl)pyrrolo[2,1-f][1,2,4]triazine-7-carboxamide trifluoroacetate], for which half-maximal inhibition (IC50) was put at 117 nM.

Consider `Cn1cc(NC(=O)c2ccc3cnc(N[C@H]4CNC[C@H](F)C4)nn23)c(C(F)F)n1` [Example 165, N-[3-(difluoromethyl)-1-methyl-1H-pyrazol-4-yl]-2-{[(3R,5R)-5-fluoropiperidin-3-yl]amino}pyrrolo[2,1-f][1,2,4]triazine-7-carboxamide trifluoroacetate], for which the IC50 was found to be 1 nM.

In the case of `N[C@H]1CCCC[C@H]1Nc1ncc2ccc(C(=O)Nc3cscc3Cl)n2n1` [Example 109, 2-{[(1R,2S)-2-aminocyclohexyl]amino}-N-(4-chlorothiophen-3-yl)pyrrolo[2,1-f][1,2,4]triazine-7-carboxamide trifluoroacetate], the IC50 amounted to 2 nM.

Turning to `O=C(Nc1ccccc1C(F)F)c1ccc2cnc(N3C[C@H]4CC[C@@H]3CN4)nn12` (single isomer, unassigned) [Example 62, 2-[(1S,4S)- or (1R,4R)-2,5-diazabicyclo[2.2.2]oct-2-yl]-N-[2-(difluoromethyl)phenyl]-pyrrolo[2,1-f][1,2,4]triazine-7-carboxamide trifluoroacetate], inhibition was half-maximal at 944 nM (IC50).

With `Cn1cc(NC(=O)c2ccc3cnc(N4C[C@H]5CC[C@@H]4CN5)nn23)c(Cl)n1` (single isomer, unassigned) [Example 45, N-(3-chloro-1-methyl-1H-pyrazol-4-yl)-2-[(1S,4S)- or (1R,4R)-2,5-diazabicyclo[2.2.2]oct-2-yl]pyrrolo[2,1-f][1,2,4]triazine-7-carboxamide trifluoroacetate], it took 80 nM to reach half-maximal inhibition (IC50).

For `N[C@H]1CCCC[C@H]1Nc1ncc2ccc(C(=O)Nc3ccccc3C(F)F)n2n1` [Example 56, 2-{[(1R,2S)-2-aminocyclohexyl]amino}-N-[2-(difluoromethyl)phenyl]-pyrrolo[2,1-f][1,2,4]triazine-7-carboxamide trifluoroacetate], the IC50 is 88 nM.

Take `N[C@@H]1[C@H](Nc2ncc3ccc(C(=O)Nc4ccccc4Cl)n3n2)CCCC1(F)F` [Example 138, 2-{[(1R,2R)-2-amino-3,3-difluorocyclohexyl]amino}-N-(2-chlorophenyl)pyrrolo[2,1-f][1,2,4]triazine-7-carboxamide trifluoroacetate]: the IC50 turned out to be 1640 nM.

With `N#Cc1cscc1NC(=O)c1ccc2cnc(N3CCC[C@@H](N)C3)nn12` [Example 144, 2-[(3R)-3-aminopiperidin-1-yl]-N-(4-cyanothiophen-3-yl)pyrrolo[2,1-f][1,2,4]triazine-7-carboxamide trifluoroacetate], the IC50 stood at 18 nM.

`Cn1cc(NC(=O)c2ccc3cnc(N4C[C@H]5CC[C@@H]4CN5)nn23)c(C(F)(F)F)n1` (single isomer, unassigned) [Example 171, 2-[(1S,4S)- or (1R,4R)-2,5-diazabicyclo[2.2.2]oct-2-yl]-N-[1-methyl-3-(trifluoromethyl)-1H-pyrazol-4-yl]pyrrolo[2,1-f][1,2,4]triazine-7-carboxamide] returned an IC50 of 64 nM.

`O=C(Nc1cscc1Br)c1ccc2cnc(N3CCCNCC3)nn12` [Example 23, N-(4-bromothiophen-3-yl)-2-(1,4-diazepan-1-yl)pyrrolo[2,1-f][1,2,4]triazine-7-carboxamide trifluoroacetate]: the IC50 worked out at 1680 nM.

`N#Cc1cscc1NC(=O)c1ccc2cnc(N[C@@H]3CCCC(F)(F)[C@@H]3N)nn12` [Example 153, 2-{[(1R,2R)-2-amino-3,3-difluorocyclohexyl]amino}-N-(4-cyanothiophen-3-yl)pyrrolo[2,1-f][1,2,4]triazine-7-carboxamide trifluoroacetate] yielded an IC50 of 120 nM.

`Cn1cc(NC(=O)c2ccc3cnc(N[C@@H]4CCCC[C@@H]4N)nn23)c(C(F)(F)F)n1` [Example 2, 2-{[(1R,2S)-2-aminocyclohexyl]amino}-N-[1-methyl-3-(trifluoromethyl)-1H-pyrazol-4-yl]pyrrolo[2,1-f][1,2,4]triazine-7-carboxamide trifluoroacetate] returned an IC50 of 2 nM.

Regarding `Cn1cc(NC(=O)c2ccc3cnc(N4C[C@@H](N)C[C@@H](F)C4)nn23)c(C(F)(F)F)n1` [Example 148, 2-[(3S,5R)-3-amino-5-fluoropiperidin-1-yl]-N-[1-methyl-3-(trifluoromethyl)-1H-pyrazol-4-yl]pyrrolo[2,1-f][1,2,4]triazine-7-carboxamide], the IC50 is 20 nM.

`Cn1cc(NC(=O)c2ccc3cnc(N4CCNCC4)nn23)c(C(F)(F)F)n1` [Example 4, N-[1-methyl-3-(trifluoromethyl)-1H-pyrazol-4-yl]-2-piperazin-1-ylpyrrolo[2,1-f][1,2,4]triazine-7-carboxamide trifluoroacetate] yielded an IC50 of 73 nM.
